Experiments:
hM4 receptors = target: T1, hM4 receptors (Homo sapiens, UniProt P08173); assay: Human M4 PAM PERK assay (CHO cells, TR-FRET, with EC20 acetylcholine); format: cell-based
T1 construct: expressed in transfected cells; host or cells: CHO cells
T1 sequence (P08173 1-479): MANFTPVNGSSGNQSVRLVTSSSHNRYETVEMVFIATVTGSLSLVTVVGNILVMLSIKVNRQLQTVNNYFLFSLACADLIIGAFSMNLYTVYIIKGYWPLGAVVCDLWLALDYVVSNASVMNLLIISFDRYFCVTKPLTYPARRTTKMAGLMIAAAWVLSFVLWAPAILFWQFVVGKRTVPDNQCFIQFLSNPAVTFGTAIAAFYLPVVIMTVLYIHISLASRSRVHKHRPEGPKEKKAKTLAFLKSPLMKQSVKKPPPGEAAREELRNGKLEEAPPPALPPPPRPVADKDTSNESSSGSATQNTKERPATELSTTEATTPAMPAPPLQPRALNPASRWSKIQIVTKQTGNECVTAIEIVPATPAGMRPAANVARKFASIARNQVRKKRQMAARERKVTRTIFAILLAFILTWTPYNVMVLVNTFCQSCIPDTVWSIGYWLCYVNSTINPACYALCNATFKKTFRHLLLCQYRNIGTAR
Method in brief: (§1)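 CHO cells expressing human or rat M4, serum-starved 4 h, then given compound (10-point, 10 μM top, ½-log) with EC20 acetylcholine (10 nM final) for 5 min at 37 °C. Lysates assayed for phospho-ERK by TR-FRET after 2 h detection at RT.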

rM4 receptors = target: T2, rM4 receptors (Rattus norvegicus, UniProt P08485); assay: Rat M4 PAM PERK assay (CHO cells, TR-FRET, with EC20 acetylcholine); format: cell-based
T2 construct: expressed in transfected cells; host or cells: CHO cells
T2 sequence (P08485 1-478): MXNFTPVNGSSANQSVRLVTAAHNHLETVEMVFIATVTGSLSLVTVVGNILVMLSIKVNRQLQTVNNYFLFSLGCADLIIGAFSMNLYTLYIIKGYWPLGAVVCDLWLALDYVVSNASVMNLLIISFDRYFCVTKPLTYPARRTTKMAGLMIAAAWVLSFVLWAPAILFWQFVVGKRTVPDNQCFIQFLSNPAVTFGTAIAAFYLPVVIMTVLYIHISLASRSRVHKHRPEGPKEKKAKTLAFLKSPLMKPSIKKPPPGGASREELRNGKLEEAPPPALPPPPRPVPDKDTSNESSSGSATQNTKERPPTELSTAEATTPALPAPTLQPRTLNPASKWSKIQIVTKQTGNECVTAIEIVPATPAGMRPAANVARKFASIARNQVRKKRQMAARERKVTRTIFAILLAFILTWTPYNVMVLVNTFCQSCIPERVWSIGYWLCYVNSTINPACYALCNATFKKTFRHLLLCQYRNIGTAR
Method in brief: as §1

human M4 receptor = target: T3, human M4 receptor (Homo sapiens, UniProt P08173); assay: M4 GTPγS PAM assay (CHO-K1 membranes, 35S-GTP binding, with EC20 acetylcholine); format: biochemical; conditions: with EC20 acetylcholine (40 nM)
T3 construct: expressed in transfected cells; host or cells: CHO-K1 cells (membranes)
T3 sequence (P08173 1-479): T1 sequence (P08173 1-479)
Method in brief: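 Membranes from CHO-K1 cells stably expressing human M4 ([…]) in 20 mM HEPES, 10 mM MgCl2, 100 mM NaCl, with 0.1 μM GDP final, were preincubated with compound 10-15 min at RT. Acetylcholine at EC20 (40 nM final) was added for 10-15 min, then 0.4 nM 35S-GTP solution for 1 h at RT. Filter-bound radioactivity was counted.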

SMILES | EC50 (hM4 receptors) | EC50 (rM4 receptors) | EC50 (human M4 receptor)
Cc1cc(=O)n(C)c2c1CN(C(=O)CC1CN(c3ccc(C#N)cc3)C1)C2 [Compound I-17] | < 50 nM | 50 to 200 nM | 50 to 200 nM
Cc1cc(=O)n(C)c2c1CN(C(=O)CC1CN(c3cnc(C(F)(F)F)cn3)C1)C2 [Compound I-26] | 200 to 1000 nM | 50 to 200 nM | > 1000 nM
Cc1c2c(n(C)c(=O)c1C)CN(C(=O)CC1CN(c3nc(C(F)(F)F)c(C4CC4)s3)C1)C2 [Compound I-64, 6-(2-(1-(5-Cyclopropyl-4-(trifluoromethyl)thiazol-2-yl)azetidin-3-yl)acetyl)-1,3,4-trimethyl-1,5,6,7-tetrahydro-2H-pyrrolo[3,4-b]pyridin-2-one] | 50 to 200 nM | 200 to 1000 nM | 50 to 200 nM
Cc1c2c(n(C)c(=O)c1C)CN(C(=O)CC1CN(c3ccc(C4CC4)c(F)c3)C1C)C2 (single isomer, unassigned) [Compound I-62] | 200 to 1000 nM | 200 to 1000 nM | 200 to 1000 nM
Cc1cc(=O)n(C)c2c1CN(C(=O)CC1CN(c3cnnc(C(F)(F)F)c3)C1)C2 [Compound I-30] | 50 to 200 nM | 50 to 200 nM | 200 to 1000 nM
Cc1cc(=O)n(C)c2c1CN(C(=O)CC1CN(c3cccnc3)C1)C2 [Compound I-3] | 50 to 200 nM | 200 to 1000 nM | < 50 nM
Cc1c2c(n(C)c(=O)c1C)CN(C(=O)CC1CN(c3ccc(F)c(C4CC4)c3)C1)C2 [Compound I-55] | 200 to 1000 nM | 50 to 200 nM | 50 to 200 nM
Cc1c2c(n(CC(F)(F)F)c(=O)c1Cl)CN(C(=O)CC1CN(c3ccncn3)C1)C2 [Compound I-95] | 50 to 200 nM | > 1000 nM | 50 to 200 nM
Cc1cc(=O)n(C)c2c1CN(C(=O)CC1CN(c3cc(F)cc(F)c3)C1)C2 [Compound I-36] | < 50 nM | 200 to 1000 nM | < 50 nM

— patent US20260209220A1, “SUBSTITUTED TETRAHYDROPYRROLO-PYRIDINONE COMPOUNDS AND THEIR USE IN TREATING MEDICAL CONDITIONS” (Karuna Therapeutics, Inc., priority 2022, published 2026)
